Source: ChEMBL document CHEMBL3407344, “Computer-guided drug repurposing: identification of trypanocidal activity of clofazimine, benidipine and saquinavir” (Eur J Med Chem, 2015)
Activity calls are given as the source filed them. The rule behind the calls is not given here.

Columns and labels:
[1] = biological target: Cruzipain (Trypanosoma cruzi) (UniProt P25779); assay: Inhibition of Trypanosoma cruzi cruzaine at 100 uM using mMBz-Pro-Phe-Arg-pNA substrate incubated for 5 mins by UV-vis spectrophotometry
[2] = system: Plasma; assay: Plasma concentration in leprosy patient at […], po dosed daily; format: ADME, organism-based; design: route oral; conditions: human, in vivo
[3] = system: Trypanosoma cruzi; assay: Trypanocidal activity against GFP expressing Trypanosoma cruzi Y C57BL/6J mouse acute model of trypanosomal infection assessed as reduction in cardiac amastigote nests counts at 20 mg/kg/day, ip measured at 10,14 and 20 days post infection by HE staining based conventional microscopy; format: functional, organism-based
[4] = system: Trypanosoma cruzi; assay: (§1) Trypanocidal activity against GFP expressing Trypanosoma cruzi Y epimastigotes in rat H9C2 cell monolayers for 24 hrs infected with 30 mins compound pre-treated parasite obtained from infected African green monkey Vero cells assessed as reduction in parasite count at 5 uM measured after 96 hrs by confocal microscopy; format: functional, organism-based
[5] = system: Trypanosoma cruzi; assay: Trypanocidal activity against GFP expressing Trypanosoma cruzi Y epimastigotes assessed as effect on parasite morphology at 1 uM to 20 uM measured after 1 to 3 days by hemocytometry based cell counting method; format: functional, organism-based
[6] = system: Trypanosoma cruzi; assay: Trypanocidal activity against GFP expressing Trypanosoma cruzi Y C57BL/6J mouse acute model of trypanosomal infection assessed as reduction in parasitemia at 20 mg/kg/day, ip measured at 10,14 and 20 days post infection; format: functional; conditions: route intraperitoneal
[7] = biological target: Cruzipain (Trypanosoma cruzi) (UniProt P25779); assay: Inhibition of Trypanosoma cruzi cruzaine using mMBz-Pro-Phe-Arg-pNA substrate incubated for 5 mins by UV-vis spectrophotometry
[8] = Toxicity in orally dosed mouse; format: organism-based; conditions: in vivo, po
[9] = system: Trypanosoma cruzi; assay: Trypanocidal activity against GFP expressing Trypanosoma cruzi Y epimastigotes assessed as effect on parasite motility at 1 uM to 20 uM measured after 1 to 3 days by hemocytometry based cell counting method; format: functional, organism-based
[10] = system: Trypanosoma cruzi; assay: as §1, with “12” for “24”, “cell invasion” for “parasite count”, “48” for “96”; format: functional
[11] = system: Trypanosoma cruzi; assay: as §1, with “12” for “24”, “48” for “96”; format: functional, organism-based
[12] = system: Trypanosoma cruzi; assay: Trypanocidal activity against GFP expressing Trypanosoma cruzi Y epimastigotes assessed as inhibition of parasite proliferation at 1 uM to 20 uM and measured after 4 days by hemocytometry based cell counting method; format: functional; conditions: 96 h
[13] = system: Trypanosoma cruzi; assay: Trypanocidal activity against GFP expressing Trypanosoma cruzi Y epimastigotes assessed as inhibition of parasite proliferation at 20 uM measured after few hrs by hemocytometry based cell counting method; format: functional, organism-based
[14] = system: H9c2; assay: Cytotoxicity against rat H9c2 cells assessed as effect on metabolic activity at 5 uM by alamar blue assay; format: ADME, cell-based; conditions: h9c2, 5 µM
[15] = system: Trypanosoma cruzi; assay: Trypanocidal activity against GFP expressing Trypanosoma cruzi Y C57BL/6J mouse acute model of trypanosomal infection assessed as reduction in parasitemia at 10 mg/kg/day, ip measured at 10,14 and 20 days post infection; format: functional; conditions: route intraperitoneal
[16] = system: H9c2; assay: Cytotoxicity against rat H9c2 cells assessed as effect on metabolic activity at 2.5 uM by alamar blue assay; format: ADME, cell-based; conditions: h9c2, 2.5 µM
[17] = system: Trypanosoma cruzi; assay: as §1, with “12” for “24”, “cell invasion” for “parasite count”, “2.5” for “5”, “48” for “96”; format: functional
[18] = system: Trypanosoma cruzi; assay: as §1, with “12” for “24”, “2.5” for “5”, “48” for “96”; format: functional, organism-based
[19] = system: Trypanosoma cruzi; assay: as §1, with “2.5” for “5”; format: functional, organism-based
[20] = system: Trypanosoma cruzi; assay: as §1, with “10” for “5”; format: functional, organism-based
[21] = system: Trypanosoma cruzi; assay: Trypanocidal activity against GFP expressing Trypanosoma cruzi Y epimastigotes assessed as inhibition of parasite proliferation at 1 uM to 20 uM and measured during stationary phase by hemocytometry based cell counting method; format: functional, organism-based
[22] = system: H9c2; assay: Cytotoxicity against rat H9c2 cells assessed as effect on metabolic activity at 10 uM by alamar blue assay; format: ADME, cell-based; conditions: h9c2, 10 µM
[23] = system: Trypanosoma cruzi; assay: as §1, with “12” for “24”, “cell invasion” for “parasite count”, “10” for “5”, “48” for “96”; format: functional
[24] = system: Trypanosoma cruzi; assay: as §1, with “12” for “24”, “10” for “5”, “48” for “96”; format: functional, organism-based
[25] = system: Trypanosoma cruzi; assay: Trypanocidal activity against GFP expressing Trypanosoma cruzi Y C57BL/6J mouse acute model of trypanosomal infection assessed as reduction in parasitemia at 100 mg/kg/day, ip measured at 10,14 and 20 days post infection; format: functional, organism-based
[26] = system: Trypanosoma cruzi; assay: Trypanocidal activity against GFP expressing Trypanosoma cruzi Y C57BL/6J mouse acute model of trypanosomal infection assessed as reduction in cardiac amastigote nests counts at 100 mg/kg/day, ip measured at 10,14 and 20 days post infection by HE staining based conventional microscopy; format: functional, organism-based

Sequence of Cruzipain (Trypanosoma cruzi) (P25779 123-467 limits assumed): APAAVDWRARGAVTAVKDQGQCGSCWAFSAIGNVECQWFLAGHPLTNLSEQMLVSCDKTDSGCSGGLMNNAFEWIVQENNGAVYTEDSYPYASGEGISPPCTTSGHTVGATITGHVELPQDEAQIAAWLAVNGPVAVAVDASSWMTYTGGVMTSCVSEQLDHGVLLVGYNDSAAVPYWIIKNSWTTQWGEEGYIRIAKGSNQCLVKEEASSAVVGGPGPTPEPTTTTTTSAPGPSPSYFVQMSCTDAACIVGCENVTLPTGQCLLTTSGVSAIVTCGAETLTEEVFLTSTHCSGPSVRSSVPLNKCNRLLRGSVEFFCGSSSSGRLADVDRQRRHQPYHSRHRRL

In the case of `COc1ccc(CCN(C)CCCC(C#N)(c2ccc(OC)c(OC)c2)C(C)C)cc1OC` (configuration not stated), the inhibition [1] is reported as “inactive”.
For `CC(C)/N=c1\cc2n(-c3ccc(Cl)cc3)c3ccccc3nc-2cc1Nc1ccc(Cl)cc1` [CLOFAZIMINE], the concentration [2] was 2100 nM, the inhibition [3] was “Active” and the Activity [4] was “Active”. The Activity [5] was “Active”, the inhibition in vivo at 20 mg/kg/day [6] was 40% and the inhibition [7] was “Dose-dependent effect”. For the same compound, the LD50 [8] was 5000 mg/kg, the inhibition [1] was “Active” and the Activity [9] was “Active”. For the same compound, the “fold change (FC)” value [10] was 3, the Activity [11] was “Active” and the LC50 [12] was 10.6 µM. The inhibition [13] was “Active” and the Activity [14] was “Non-toxic”.
With `COC(=O)C1=C(C)NC(C)=C(C(=O)OC2CCCN(Cc3ccccc3)C2)C1c1cccc([N+](=O)[O-])c1` (configuration not stated) [BENIDIPINE] the inhibition in vivo at 10 mg/kg/day [15] was 40%, the Activity [5] was “Active” and the inhibition [7] was “Dose-dependent effect”. For the same compound, the Activity [16] was “Non-toxic”, the LD50 [8] was greater than 300 mg/kg and the “fold change (FC)” value [17] was 3. For the same compound, the Activity [18] was “Active”, the inhibition [1] was “Active” and the Activity [9] was “Active”. For the same compound, the LC50 [12] was 19.5 µM and the Activity [19] was “Active”.
With `CC(C)(C)NC(=O)[C@@H]1C[C@@H]2CCCC[C@@H]2CN1C[C@@H](O)[C@H](Cc1ccccc1)NC(=O)[C@H](CC(N)=O)NC(=O)c1ccc2ccccc2n1` [SAQUINAVIR] the Activity [20] was “Active”, the inhibition [21] was “Active” and the Activity [5] was “Active”. The Activity [22] was “Non-toxic”, the “fold change (FC)” value [23] was 3 and the inhibition [7] was “Dose-dependent effect”. The inhibition [1] was “Active”, the Activity [9] was “Active” and the Activity [24] was “Active”.
With `O=C(Cn1ccnc1[N+](=O)[O-])NCc1ccccc1` the inhibition [25] was “Active” and the inhibition [26] was “Active”.
